# Measured values: PubChem BioAssay AID1996
# Details: buffer; pH 7.4; 200.0 µM
row,Compound,solubility kinetic [µg/mL]
1,Cl.c1ccc2c(N3CCNCC3)cccc2c1,> 37.3
2,Cc1cnc(C(=O)Nc2ccc(N3CCCCC3)cc2)cn1,4.2
3,O=C(NNC(=S)NC(=O)c1ccc(F)cc1)c1ccncc1,> 47.7
4,COC(=O)c1ccccc1N=Cc1c(O)[nH]c(=O)[nH]c1=O,8.4
5,CCn1c(=O)c2sccc2n(Cc2ccc(C)cc2)c1=O,0.4
6,Cc1ccc(N2CC(O)=C(c3ccccc3)C2=N)cc1,> 39.6
7,CC1CCCCN1Cc1ccc(Cl)nc1 (configuration not stated),15.5
8,CC(=O)SCC[N+](C)(C)C.[Cl-],29.4
9,CCOc1ccc2oc(=O)cc(CN3CCOCC3)c2c1,41.5
10,O=C(Nc1ccc(Cl)cc1)C1CCN(C(=O)c2cccs2)CC1,12.9
11,O=C1OC(Nc2nc(-c3ccc(F)cc3)cs2)c2ccccc21 (configuration not stated),1.9
12,Cc1cccc2cc3c(nc12)-c1ccccc1C3=O,< 0.5
13,Cc1onc(-c2c(Cl)cccc2Cl)c1C(=O)NN1CCCCCC1,> 55.2
14,Cc1ccc(/C=C(\C#N)C(=O)NC(C)C)o1,> 32.7
15,Cc1ccc(C2(C)NC(=O)N(CC(=O)Nc3ccc4c(c3)CCC4)C2=O)cc1 (configuration not stated),3.5
16,Cc1cc2c(cc1C)N(Cc1ccc(Cl)cc1)C1=NCCCN12,> 48.9
17,CC(=O)c1sc(NC(=O)c2ccc(C)c(C)c2)nc1C,< 0.3
18,O=C1NCCN1CCN1C(=O)c2ccccc2NC1c1ccccc1 (configuration not stated),> 50.5
19,Cc1nc(NCc2cccnc2)c2c3c(sc2n1)CC(C)CC3 (configuration not stated),2.5
20,CCN(Cc1ccncc1)C(=O)CSc1ccc2ccccc2c1,32.6
21,CC(NS(=O)(=O)c1ccc(Cl)cc1)C(=O)N1CCOCC1 (configuration not stated),39.7
22,CC(C)OP(=O)(c1ccc(N(C)C)cc1)C(O)c1ccc(N(C)C)cc1 (configuration not stated),> 56.5

row,Compound,solubility kinetic [µg/mL]
1,Cc1onc(-c2ccccc2Cl)c1C(=O)N1CCC(C)CC1,> 47.8
2,CCN1C(=O)c2cccc3c(N)ccc1c23,> 31.8
3,CCOc1ccccc1C(=O)NC1CCNCC1,> 37.2
4,O=C(O)c1ccccc1C(=O)Nc1ccccc1NC(=O)c1ccccc1C(=O)O,> 60.7
5,Nc1nc(-c2cc3c(cc2Cl)OCCO3)cs1,25.9
6,O=C1SCCC1NC(=O)C(c1ccccc1)c1ccccc1 (configuration not stated),> 46.7
7,O=C(CN1C(=O)C2C3CCC(C3)C2C1=O)OCC(=O)c1ccccc1 (configuration not stated),48.1
8,CCN(CC)S(=O)(=O)c1ccc(N2CC(C(=O)N3Cc4ccccc4CC3C(N)=O)CC2=O)cc1 (configuration not stated),> 74.8
9,COC(=O)c1cc(C(=O)Nc2ccc(Cl)cn2)cc([N+](=O)[O-])c1,2.5
10,CCc1cccc(C)c1NC(=O)Cc1ccsc1,34.9
11,CCOc1ccc(C2NC(=O)c3ccccc3O2)cc1OC (configuration not stated),3.3
12,N#C/C=C(/c1ccc(F)cc1)N1CCOCC1,> 34.8
13,CCN1CCN(C(=O)c2cc3ccc(OC)cc3[nH]2)CC1,> 43.1
14,O=C(CNC(=O)c1ccc2c(c1)OCO2)NCCOc1ccc(Cl)cc1,13.7
15,CCCCOc1ccc(/C=C(\C(=O)O)c2ccc(S(=O)(=O)N3CCCC3)s2)cc1,> 65.3
16,O=C(O)C1Nc2ccc(Br)cc2C2C=CCC12 (configuration not stated),43.6
17,CCOC(=O)C1CCN(C(=O)C(C)Sc2nnc3ccccn23)CC1 (configuration not stated),> 54.4
18,O=S(N1CCc2ccccc21)C12CC3CC(CC(C3)C1)C2 (configuration not stated),4.4
19,O=[N+]([O-])c1ccccc1S(=O)(=O)Nc1ccc2c(c1)OCCO2,> 50.4
20,O=C1CCCN1c1ccc(N2CCCC2=O)cc1,> 36.6
21,COC(=O)C1=C(C)NC(=O)NC1c1ccc2ccccc2c1 (configuration not stated),< 0.3
22,Cc1ccc(OCCCCCCN2CCNCC2)cc1.O=C(O)C(=O)O,> 55

row,Compound,solubility kinetic [µg/mL]
1,O=C(c1c(F)cccc1F)N(Cc1cccs1)C1CCCC1,30.3
2,O=C(CN1CCCC1)N1CCN(c2ccccc2)CC1,> 41
3,c1ccc(N2CCN(Cc3ccc4c(c3)OCO4)CC2)nc1,32.1
4,Cc1cc(C(=O)Cn2cnc3cc(F)ccc3c2=O)c(C)n1C1CC1,0.9
5,CC(C)=CC(=O)OCc1csc(CC(=O)Nc2ccccc2C)n1,> 51.7
6,COC(=O)COc1c(/C=C\c2nc(O)c([N+](=O)[O-])c(=O)[nH]2)cccc1OC,> 56.6
7,COc1cc(OC)cc(C2=NC3(CCC(C)CC3)NC2=S)c1 (configuration not stated),2.2
8,Cc1nc2ccccc2c2c1CC(C)S2 (configuration not stated),24.5
9,COC(=O)CC(NC(=O)C1CC1)c1ccc2c(c1)OCO2 (configuration not stated),> 43.7
10,Cc1cccnc1NC(=O)Cn1c(=O)oc2ccccc21,41.2
11,Cc1cc(=O)[nH]c(SCC(=O)N2CCCC(C)C2)n1 (configuration not stated),> 42.2
12,O=C(Nc1ccsc1C(=O)N1CCCC1)c1ccccc1,< 0.3
13,CCN(CC)C(=O)Nc1ccc(Br)cc1,> 40.7
14,O=C1N(c2ccccc2)C(=Nc2ccccc2)SC12CC2,41.5
15,CC(=O)N[C@@H](Cc1c[nH]c2ccccc12)C(=O)NC1CC1,> 42.8
16,S=C(NCCCN1CCOCC1)NC1CC1,> 36.5
17,CC1SCC(NC(=O)c2ccc(Cl)cc2)CS1 (configuration not stated),39.2
18,Cc1ccc(C)c(C(=O)CCC(=O)Nc2ccc(F)cc2)c1,1
19,COc1ccc(S(=O)(=O)NCc2ccc(F)cc2)cc1OC,> 48.8
20,COc1ccc(C(=O)COC(=O)c2ccc(N(C)C)cc2)cc1,< 0.7
21,CCOc1ccc(-c2csc(NC(=O)c3ccco3)n2)cc1,2.6
22,CCC(C(=O)Nc1ccc([N+](=O)[O-])cn1)c1ccccc1 (configuration not stated),39.3

row,Compound,solubility kinetic [µg/mL]
1,O=c1cc[nH]c2ccc([N+](=O)[O-])cc12,> 28.5
2,CC(=O)c1ccc(N2CCC(C)CC2)c(F)c1,6
3,O=C(Cc1ccc(F)cc1)NC(Cc1c[nH]c2ccccc12)C(=O)O (configuration not stated),46.6
4,COc1ccc(-c2nc(N)ncc2-c2ccccc2)c(O)c1,0.9
5,C=C(C)COc1ccc(-c2ncncc2-c2ccc(Cl)cc2)c(O)c1,< 0.4
6,C/C(CC(=O)Nc1cc(C)ccn1)=N\NC(=O)c1ccccc1C,> 48.7
7,Cc1cccc(N2CN=c3s/c(=C\c4ccccn4)c(=O)n3C2)c1,5.3
8,CC1CN(C(=O)COC(=O)c2ccc(Cl)nc2)CC(C)O1 (configuration not stated),42.3
9,Cn1c(C(=O)N2CCN(c3ccccc3)CC2)cc2cc(Cl)ccc21,4.4
10,Cc1ccc(C(=O)N(C)CC(=O)Nc2ccc(F)c(F)c2F)o1,> 48.9
11,Cc1nc(Cl)sc1C(=O)Nc1ccccc1Cl,21.7
12,Cc1ccc(Oc2ncccc2N)c2c1CCC2,10.1
13,O=C(COC(=O)CNC(=O)C1CCCCC1)Nc1ccccc1OC(F)F,> 57.7
14,CCN(CC)S(=O)(=O)c1cccc(C(=O)NC2=NCCS2)c1,34.8
15,CCOc1ccc(C(=O)OC2CCCN(C)C2)cc1.Cl (configuration not stated),> 45
16,C=CCn1cnnc1SCC(=O)Nc1cccnc1Cl,> 46.5
17,Cl.O=C(Nc1cccc(Cl)c1)NC1CCN(C2CCCCC2)C1 (configuration not stated),> 53.7
18,COc1ccc2[nH]cc(CCNC(=O)Cc3ccc(F)cc3)c2c1,25.4
19,CC(Sc1nnc(-c2ccccc2F)n1C1CC1)C(N)=O (configuration not stated),> 46
20,OCCN1CNC(=S)NC1,22.8
21,CC(=O)NCCc1ccc(C(=O)COC(=O)c2cc(C)oc2C)cc1,> 51.5
